Reference: ChEMBL document CHEMBL1926682, “Triterpene galactosides of the pouoside class and corresponding aglycones from the sponge Lipastrotethya sp” (J Nat Prod, 2011)
In brackets after ≈: the same amount, converted by molar mass.

Experiments:
K562 = experiment: Cytotoxicity against human K562 cells by spectrophotometric analysis; type: functional, cell-based
P388 = experiment: Cytotoxicity against mouse P388 cells; type: functional; conditions: read-out: ED50 (the source's name)

CC(=O)O[C@H]1[C@H](O[C@H]2CC[C@](C)(OC(C)=O)[C@@H](CC/C(C)=C/C[C@H](/C=C(\C)[C@H](C[C@@H]3C(C)=CCC(=O)C3(C)C)OC(C)=O)OC(C)=O)C2(C)C)O[C@H](CO)[C@H](O)[C@@H]1O [POUOSIDE D]
IC50 (K562): 12.5 µM

CC(=O)O[C@@H](C[C@@H]1C(C)=CCC(=O)C1(C)C)/C(C)=C/[C@H](O)C/C=C(\C)CC[C@H]1C(C)(C)[C@@H](O)CC[C@]1(C)OC(C)=O [POUOGENIN C]
IC50 (K562): 14.6 µM

CC(=O)O[C@@]1(C)CC[C@H](O[C@@H]2O[C@H](CO)[C@H](O)[C@H](O)[C@H]2O)C(C)(C)[C@@H]1CC/C(C)=C/C[C@@H](O)/C=C(\C)[C@@H](O)C[C@@H]1C(C)=CCC(=O)C1(C)C [POUOSIDE F]
IC50 (K562): > 100 µM

CC(=O)O[C@@H](C[C@@H]1C(C)=CCC(=O)C1(C)C)/C(C)=C/[C@@H](C/C=C(\C)CC[C@H]1C(C)(C)[C@@H](O)CC[C@]1(C)OC(C)=O)OC(C)=O [POUOGENIN B]
IC50 (K562): 38.9 µM

CC(=O)O[C@@]1(C)CC[C@H](O)C(C)(C)[C@@H]1CC/C(C)=C/C[C@@H](O)/C=C(\C)[C@@H](O)C[C@@H]1C(C)=CCC(=O)C1(C)C [POUOGENIN A]
IC50 (K562): 14.8 µM

C=C1CC[C@H](O[C@@H]2O[C@H](CO)[C@H](O)[C@H](O)[C@H]2O)C(C)(C)[C@@H]1CC/C(C)=C/C[C@H](/C=C(\C)[C@H](C[C@@H]1C(C)=CCC(=O)C1(C)C)OC(C)=O)OC(C)=O [POUOSIDE I]
IC50 (K562): > 100 µM

CC(=O)O[C@@H](C[C@H]1C(C)(C)C(=O)C=C[C@]1(C)O)/C(C)=C/[C@H](O)C/C=C(\C)CC[C@H]1C(C)(C)[C@@H](O[C@@H]2O[C@H](CO)[C@H](O)[C@H](O)[C@H]2O)CC[C@]1(C)OC(C)=O [POUOSIDE G]
IC50 (K562): > 100 µM

CC(=O)O[C@@H](C[C@@H]1C(C)=CCC(=O)C1(C)C)/C(C)=C/[C@H](O)C/C=C(\C)CC[C@H]1C(C)(C)[C@@H](O[C@@H]2O[C@H](CO)[C@H](O)[C@H](O)[C@H]2O)CC[C@]1(C)OC(C)=O [POUOSIDE B]
IC50 (K562): > 100 µM

CC(=O)O[C@@]1(C)CC[C@H](O)C(C)(C)[C@@H]1CC/C(C)=C/C[C@@H](O)/C=C(\C)C(=O)C[C@H]1C(C)(C)C(=O)C=C[C@]1(C)O [POUOGENIN E]
IC50 (K562): 18.9 µM

COc1cccc2c1C(=O)c1c(O)c3c(c(O)c1C2=O)C[C@@](O)(C(=O)CO)C[C@@H]3O[C@H]1C[C@H](N)[C@H](O)[C@H](C)O1 [DOXORUBICIN]
IC50 (K562): 13.6 µM

CC(=O)O[C@@]1(C)CC[C@H](O[C@@H]2O[C@H](CO)[C@H](O)[C@H](O)[C@H]2O)C(C)(C)[C@@H]1CC/C(C)=C/C[C@@H](O)/C=C(\C)C(=O)C[C@H]1C(C)(C)C(=O)C=C[C@]1(C)O [POUOSIDE H]
IC50 (K562): > 100 µM

CC(=O)O[C@@H](C[C@@H]1C(C)=CCC(=O)C1(C)C)/C(C)=C/[C@@H](C/C=C(\C)CC[C@H]1C(C)(C)[C@@H](O[C@@H]2O[C@H](CO)[C@H](O)[C@H](O)[C@H]2O)CC[C@]1(C)OC(C)=O)OC(C)=O [POUOSIDE A]
EC50 (P388): 1.5 µg/mL (≈ 1.93 µM) | IC50 (K562): 17 µM

CC(=O)O[C@@H](C[C@H]1C(C)(C)C(=O)C=C[C@]1(C)O)/C(C)=C/[C@H](O)C/C=C(\C)CC[C@H]1C(C)(C)[C@@H](O)CC[C@]1(C)OC(C)=O [POUOGENIN D]
IC50 (K562): 27.5 µM
